The source of these data is US12673083B2, “TREM-1 inhibitors for the treatment of vaso-occlusions and tissue injuries in patients suffering from sickle cell disease” (INSERM (INSTITUT NATIONAL DE LA SANTÉ ET DE LA RECHERCHE …, priority 2019, dated 2026).

In one assay the test system is neutrophils. The assay is described as follows: Intravital microscopy of neutrophils in post-capillary venous microcirculation of the cremaster after TNFα injection. Type of assay: in vivo, HbSS knock-in sickle cell mice. The settings on record: HbSS mice. The method, then: (§1) Experiments were performed on 4-6 week-old sex matched healthy control (Hba^tm1(HBA)Tow Hbb^tm3(HBG1,HBB) Tow) (HbAA (hα/hα::β^A/β^A)) and SCD (Hba^tm1(HBA)Tow Hbb^tm2(HBG1,HBB*)Tow) (HbSS (hα/hα::βS/βS)) mice as well as SAD transgenic sickle mice with or without Trem-1 gene deletion (TREM-1 KO). The animal protocol was approved by the Paris Descartes University Animal Care and Use Committee and the French Ministry of Agriculture. Animals were anesthetized with isoflurane, and whole blood was collected from each mouse via retro-orbital venipuncture by heparinized microcapillaries. In anesthetized animals, organs were immediately removed and divided into two and either immediately frozen in liquid nitrogen or fixed in 10% formalin and embedded in paraffin for histology.
To characterize in vivo the effects of the TREM-1 pathway on neutrophils recruitment, we used a protocol as previously described (Koehl B et al. Haematologica. 2017 July; 102(7):1161-1172). Male mice were anaesthetized by spontaneous inhalation of isoflurane and maintained at 37° C. with a heating pad. The left jugular vein was cannulated to administer drugs and antibodies. […] 2 h after TNFα injection, the cremaster muscle was incised and neutrophils were monitored by injection of labeled Phycoerythrin-conjugated anti-Ly6G antibody (0.05 μg/g body weight, clone RB6-8C5, BD Biosciences Pharmingen). Venules were visualized with an intravital microscope (Zeiss Examiner D1) equipped with a water-immersion objective (Zeiss Plan-Apochromat 20×/1.0 NA) and fluorescence excitation was made through a Lambda DG-4 high-speed wavelength switcher (Sutter Instrument). […] Images were analyzed using SlideBook 6.0 software (Intelligent Imaging Innovations). The neutrophil rolling flux fraction, adhesion density, adhesion efficiency and transmigration were measured using playback assessment of 3-min digital time-lapse videos and 3D z-stack recordings of single unbranched venules (3 venules per mouse, 20-40 μm) from 2.5 hours to 5 hours after the TNFα challenge at 30-min intervals. […]

The test system of another assay is Ter 119+ erythrocytes. The assay is described as follows: Hypoxia-reoxygenation experimental vaso-occlusive crisis: vascular congestion with erythrocytes on histological sections. Type of assay: in vivo, sickle cell mice (SS). On the procedure:
as §1
(§2) In order to test the pharmacological inhibition of TREM-1 on erythrocyte vascular congestion and neutrophils infiltrates, homozygous HbS (SS) mice were subjected to 14 hours hypoxia (8% oxygen) and then 1 hours reoxygenation (21% oxygen) to trigger acute vaso-occlusive crisis as previously described (Sabaa N et al. J Clin Invest. 2008 May; 118(5):1924-33). The TREM-1 inhibitory peptide for each of the hypoxia-reoxygenation experiments was administered by intraperitoneal injection just prior to the onset of hypoxia, as well as at the end of hypoxia, at the beginning of the reoxygenation phase. These conditions reproduce a situation of severe hypoxia for SCD, provoking crises and damage related to ischemia-reperfusion. After this experiment, the tissues were analyzed in the same way as for the SS mice in the base state.

A further assay has as its system neutrophils (PMNs). The assay is described as follows: Hypoxia-reoxygenation experimental vaso-occlusive crisis: abundance of neutrophils on histological sections. Type of assay: in vivo, sickle cell mice (SS). On the procedure: as §1, §2
Setting [1] is: histological sections of lung, SS LR12 vs SS PBS.

Entries after “also recorded” stand apart in the source; their conditions may differ.

For the substance “LR12: 12 amino-acid TREM-1 inhibitory peptide LQEEDAGEYGCM, N-terminal 12 amino-acids of LR17 (TLT-1 derived) (Synthetic LR12)”, the neutrophil rolling result in the assay on neutrophils (between 3 h and 4 h30 post-injection of TNFα, LR12 6 mg/kg 10 min before and 3 mg/kg 3 h15 after TNFα, 2way ANOVA P value=0.0041) is “significant reduction; also recorded: reduces”. Also, the neutrophil transmigration result in the assay on neutrophils (from 3 h to 5 h post-TNFα, 2way ANOVA P value <0.0001) was “significant reduction; also recorded: reduces”. For the same substance, the neutrophil adhesion result in the assay on neutrophils (throughout the experiment after TNFα, 2way ANOVA P value <0.0001) is “significant reduction; also recorded: reduces”. In addition, the “vascular congestion with Ter 119+ erythrocytes, liver” value in the assay with Ter 119+ erythrocytes (histological sections of liver, SS LR12 vs SS PBS, intraperitoneal, hypoxia-reoxygenation) was “significant reduction”. Besides, the “vascular congestion with Ter 119+ erythrocytes, lung” value in the assay on Ter 119+ erythrocytes (setting [1]) is listed as “not in lung sections”. The “vascular congestion with Ter 119+ erythrocytes, renal medulla” value with Ter 119+ erythrocytes (histological sections of renal medulla, SS LR12 vs SS PBS) is listed as “significant reduction”. Moreover, the “vascular congestion with Ter 119+ erythrocytes, spleen” value in the assay on Ter 119+ erythrocytes (histological sections of spleen, SS LR12 vs SS PBS) was “significant reduction”. Also, in the assay on Ter 119+ erythrocytes (tissues of sickle cell mice (summary statement, FIGS. 3A-3D)), the “vascular congestion of tissues” value was “significant reduction”. Further, the “abundance of neutrophils, liver (% green fluorescent surface)” value with neutrophils (PMNs) (histological sections of liver, SS LR12 vs SS PBS) is reported as “significant reduction”. The “abundance of neutrophils, lung (% green fluorescent surface)” value with neutrophils (PMNs) (setting [1]) is on record as “significant reduction”. Besides, the “abundance of neutrophils in tissues” value in the assay on neutrophils (PMNs) (tissues of sickle cell mice during experimental vaso-occlusive crisis (summary statement, FIGS. 4A and 4B)) was “significant reduction”.
